Experimental data taken from patent US20140187594A1, “DIPHENYL ETHER COMPOUNDS FOR THE TREATMENT OF LIVER, LUNG DISORDERS, DIABETIC COMPLICATIONS AND CARDIOVASCULAR DISEASES” (ORCHID CHEMICALS AND PHARMACEUTICALS LTD, priority 2010, published 2014).
“Also recorded” adds a separate entry of the source.

Legend:
3T3-L1 fibroblasts = experiment: Adipogenesis in 3T3-L1 mouse fibroblast (oil red O staining); format: cell-based; conditions: 1 μM or 10 μM, 7 days
Procedure: 3T3-L1 fibroblasts were seeded at a concentration of 10,000 cells/well in 24 well tissue culture plates in a total volume of 1 mL Dulbecco's Modified Eagle Medium (DMEM media) containing 10% fetal bovine serum, penicillin and streptomycin. […] After every two days, the media contents were replaced with fresh media and the drug. This process was carried out for 7 days. After 7 days of treatment, the cells were fixed in 10% formalin for 1 hour at […], stained with oil red 0 solution for 10 minutes and washed 6 times with 1×PBS to remove the excess stain. The plates were dried and visualized under 40× objective using Nikon E200 microscope and the pictures were taken by Nikon DXM 1200C digital camera.

NAFLD/NASH mice = experiment: Supranutritional diet induced NAFLD/NASH (and DIO/NAFLD) models; format: in vivo, C57BL/6 mice
Procedure: A rodent obese and NAFLD model was developed by feeding supranutritional diet, which simulates several features of human obesity and NAFLD. These features were treated as mentioned below. […] C57BL/6 male mice aged at 6-8 weeks, body weight ranges between 16-22 g were used for this study. Animals were divided into two groups. First group (n=8, where n refers to number of animals) was treated as a normal control fed with chow feed (Nutri Lab® Rodent, Tetragon Chemie Pvt. Ltd., Bangalore) and the second group (n=20) was treated with 60 Kcal % high fat diet (HFD) (Research Diets, New Brunswick, N.J., Cat# D12492 with blue dye) for 90 days. Animals were selected based on their body weight. The Animals fed with normal chow diet (n=8) served as normal control (Group I) and animals fed with HFD were divided into two groups as DIO/NAFLD control (Group II) (n=10), and Group III (n=9) treated with compound formula (A) at 100 mg/kg for 28 days. During this period, animal body weight and feed intake was recorded daily.
A rodent NAFLD/NASH model was developed by feeding supranutritional diet which simulates several features of human NAFLD/NASH. These features were treated as mentioned below. Fifty C57BL/6 male mice aged 6-8 weeks, and body weight ranges between 16-36 g were used for this study. Animals were divided into two groups, first group (n=10) treated as a normal control, was fed with chow feed (Nutri Lab® Rodent, Tetragon Chemie Pvt. Ltd., Bangalore) and the second group (n=40) fed with 60 Kcal % HFD (Research Diets, New Brunswick, N.J., Cat# D12492 with blue dye) and 40% high fructose liquid (HFL) for 60 days. After 45 days, two animals from disease induction and normal control groups were sacrificed; liver histopathology examination was carried out to confirm the induction of NAFLD/NASH. Animals fed with normal chow diet served as a normal control (Group I) and animals fed HFD and HFL were divided into three groups (n=6-8) as NAFLD/NASH control (Group II), Group III and Group IV were dosed with compound of formula (A) and Metformin at 100 and 350 mg/kg p.o respectively for 28 days. On 28th day, animals were kept 12 hours fasting and 29th day blood was collected, plasma separated and used for biochemical and compound concentration analysis. The animals were then sacrificed. Liver was collected and weighed. Liver tissues were used for compound concentration analysis, triglycerides estimation and histopathology examination. Gross pathology of liver was also observed. Experiment-3: Effect of Compound of formula (A) in NAFLD/NASH mice
The experiment-2 protocol was followed. There compound of formula (A) was compared with other antidiabetic compounds (Figures-8-13).
To develop NAFLD/NASH model, the same protocol was followed as mentioned in Experiment-2. At the end of induction period the animals were grouped as follows. Animals fed with normal chow diet (n=9) served as Normal control (Group 1) and animals fed HFD and HFL were divided into four groups (n=9-12) as NAFLD/NASH control (Group II), Groups III, IV, and V were treated with compound of formula (A) at 10, 30 and 100 mg/kg p.o. respectively for 28 days. After 28 days of treatment animals were kept for 12 hours fasting and blood was collected for biochemical estimations. Following blood collection, animals were sacrificed, liver was collected and weighed. Liver tissues were used for compound concentration analysis, TG estimation and histopathological examination. Gross pathology of liver was also observed. […]

TNF-α = experiment: LPS induced TNF-α level in NAFLD/NASH mice; format: in vivo; conditions: 100 mg/kg orally 28 days, LPS 500 μg/animal i.p., FIG. 28
Source text: To develop NAFLD/NASH model, the same protocol was followed as mentioned in Experiment-2. After induction, animals were further grouped as follows. Animals fed normal chow diet (n=10) served as a normal control (Group I) and animals fed HFD and HFL were further divided into two groups as disease control (Group II) (n=10) and treatment group (Group III) (n=9). Duration of the treatment was 28 days. During this period Group I and Group II animals were received water as vehicle and Group III animals were treated with compound of formula (A) 100 mg/kg orally. On 27th day, animals were kept for 12 hours fasting and on 28th day, after 60 minutes of treatment, animals were challenged with LPS (500 μg/animal) by intraperitoneal route. Then after 90 minutes of LPS challenge, blood collection was carried out, plasma and serum were separated and stored at −80° C. in deep freezer for further analysis. Following blood collection, animals were sacrificed; liver, inguinal and epididymal fats were collected and weighed.
The parameters like Glucose, ALT, AST, TC, TG (Clinical chemistry analyzer Erba XL 300), insulin (Linco®-CA, Product code: EZRMI-13K) and TNFα (GE Healthcare, Amersham, UK. Product code: RPN2718) were measured using commercially available kits. NEFA was measured in serum using commercially available NEFA C kit (Product code No: 279-75401, Wako pure chemical industries ltd., Japan).

Question: Which “adipogenesis (intracellular lipids stained with oil red O)” value (3T3-L1 fibroblasts) does the source give for `COC(=O)[C@@H](N)Cc1ccc(Oc2ccc(CC3SC(=O)NC3=O)cc2)cc1` (stereo partly drawn) [Compound of formula (A), Methyl(2S)-2-amino-3-(4-{4-[(2,4-dioxo-1,3-thiazolidin-5-yl)methyl]phenoxy}phenyl)propanoate] here?
Answer: The value was “did not induce adipogenesis”.

Question: What about the “liver histopathology (Hepatic steatosis)” value (NAFLD/NASH mice; (A) up to 100 mg/kg, disodium salt of (C) 30 mg/kg p.o., 28 days, FIGS. 6, 7, 12, 13, 19, 20, 21, 24, 25, 30, 31 & 32) of the same molecule?
Answer: The value was “reduction; also recorded: improvement in liver histopathology”.

Question: What about the “plasma AST” value (NAFLD/NASH mice; vs untreated disease control, FIG. 17) of the same molecule?
Answer: The value was “reduction”.

Question: And the body weight (NAFLD/NASH mice; vs untreated disease control, FIGS. 1, 2, 8, 16 & 23)?
Answer: The body weight was “reduction in body weight”.

Question: And the “glucose (fasted)” value (NAFLD/NASH mice; vs untreated disease control, FIGS. 5 & 9)?
Answer: The value was “reduction”.

Question: And the “plasma ALT” value (NAFLD/NASH mice; vs untreated disease control, FIGS. 10 & 18)?
Answer: The value was “reduction”.

Question: What about the TNF-α levels (TNF-α) of the same molecule?
Answer: The TNF-α levels was “reduction”.
